Measurements: US11291684B2, “Treatment of glaucoma” (TX MEDIC AB, priority 2017, dated 2022)

Tests used:
glaucomatous eyes = experiment: Intraocular pressure in TGF-β-induced glaucoma model (rebound tonometer); type: in vivo, Sprague Dawley rats; settings: rat, 15 mg/kg daily s.c. from day 14
Description: Raised IOP was induced by twice weekly intracameral injections of the inflammatory cytokine TGF-β over the entire time period of 28 days. This induced scarring of the trabecular meshwork (TM) drainage portals by day 14 with associated raised IOP. Daily subcutaneous dextran sulfate/saline treatments commenced at day 14.
Glaucoma was induced in adult male Sprague Dawley rats by repeat twice weekly intracameral (IC) injections of transforming growth factor-β (TGF-β) to increase intraocular pressure (IOP). Sustained increases in IOP (after two weeks) leads to death of retinal ganglion cells (30-40%). Dextran sulfate (Tikomed AB, Sweden, WO 2016/076780) was administered at 15 mg/kg by daily subcutaneous injection from […] to assess RGC protection compared to controls.
Group 1 n=12 rats; 24 eyes IOP+IC TGF-β (twice weekly for 28 days) between day 0 and day 28+ daily subcutaneous administration of dextran sulfate from day 14 to day 28.
Sixteen 8 to 10 week-old male 175-200 g Sprague Dawley rats (Charles River, Kent, UK), housed with free access to food and water under a 12 h dark/light cycle, were used for these experiments. Surgery was performed at the Biomedical Services Unit at the University of Birmingham in accordance with the Home Office guidelines set out in the 1986 Animal Act (UK) and the ARVO Statement for the Use of Animals in Ophthalmic and Vision Research. […] The post-operative welfare of all rats was monitored closely. […]
Using an iCare Tonolab rebound tonometer (Icare, Helsinki, Finland), IOP was recorded bi-weekly between 9-11 am for the duration of each experiment to avoid confounding the readings with circadian variability. Immediately after induction of anesthesia with 5% isoflurane, six rebound measurements were taken with the tonometer from the central cornea on each measurement occasion to give an overall average IOP measurement (mmHg) and all graphical data points represent the mean±SEM of 3 readings (of 6 rebounds each) taken sequentially to ensure accurate measurements.

laser-induced CNV = experiment: Isolectin B4 and collagen IV staining of RPE/choroidal/sclera wholemounts in laser-induced CNV model; type: in vivo, C57BL/6J mice
Protocol: Mice were anaesthetized with an intraperitoneal injection of 75 mg/kg ketamine and 7.5 mg/kg xylazine. The pupils were dilated with 1% atropine and 2.5% phenylephrine (Bausch & Lomb). To induce CNV, the rupture of Bruch's membrane-choroid was achieved by laser photocoagulation using the HGM Elite 532 Green Laser (Litechnica Ltd, Middesex, UK) with the spot size of 100 μm, 250 mW power and 100 msec duration. The laser spots were placed between retinal vessels and 2 to 3 disc-diameter away from the optic disc. The formation of a bubble at the site of laser application indicates the successful rupture of Bruch's membrane. Only laser burns in which a bubble was produced were included in this study. […] Three laser burns were applied to each retina.
Immediately after CNV induction, all mice were injected subcutaneously with 500 μl of dextran sulfate or saline. The injection was repeated once daily for 9 days post laser-CNV induction.
On day 10 post-CNV induction, all mice were sacrificed and eyes were carefully removed. All eyes were fixed in 2% paraformaldehyde/PBS (Sigma-Aldrich, Dorset, UK) for 2 h at room temperature and then washed and stored in PBS at 4° C. RPE-choroid-sclera wholemounts were prepared using the protocol described. Briefly, the anterior segment of the eye, including the cornea, ciliary body, iris and the lens were removed. Five vertical cuts were made to the eye cup, and the retinal tissue was then carefully removed. The extra ocular tissues, including conjunctiva and ocular muscles were carefully removed from the eye-cup (containing RPE/choroid/sclera). The RPE/choroidal/sclera wholemounts were further processed for Griffonia simplicifolia lectin 1-isolectin B4 and collagen IV immunostaining.
CNV was detected using the well-established isolectin B4 and collagen IV labelling technique. Isolectin B4 labels both infiltrating macrophages and vascular endothelial cells. Collagen IV labels the basal lamina of blood vessels. Both markers have been used widely to detect CNV.
RPE/choroidal/sclera wholemounts were permeablized with 0.5% Triton X-100/PBS for 1 h at room temperature. The samples were then blocked with 10% BSA in 0.5% Triton X-100/PBS for 1 h and incubated with biotinylated Griffonia simplicifolia lectin 1-isolectin B4 (GSL Isolectin B4, 1:50, Vector Laboratories Ltd, UK) and collagen IV (1:50, BIO-RAD, UK) overnight at 4° C. After thorough washing in PBS (10 minutes×3), samples were incubated with streptavidin-fluorescein isothiocyanate (FITC) (1:100, Vector laboratories, UK) and goat anti rabbit AF594 (1:100, Invitrogen, UK) for two hours at room temperature. Samples were flat-mounted on glass slides with Vectashield Mounting Medium (Vector Laboratories Ltd, UK) and observed by fluorescent microscopy.
Lecia fluorescent microscope was used to acquire images from above prepared RPE-choroidal/sclera wholemount samples. A 10× objective lens was used to allow capturing the whole area of a CNV. The imaging software ImageJ was used to analyze the images. To measure the size of CNV, the border of CNV was outlined manually and the size was automatically calculated using Image J software.
All data (the size of CNV in each group) were expressed as mean±SEM. Student t test was used to compare the difference between the dextran sulfate group and the saline control group.
24 C57BL/6J mice (10˜12 weeks old) were used in this study. […]

[1] = mouse laser-CNV, day 10, 0.6 mg/ml, 500 μl s.c. once daily, mean±SEM

Substance: dextran sulfate
- IOP compared to controls (glaucomatous eyes; IC TGF-β twice weekly, day 24, vs saline): significantly lower (P<0.001) and normalized
- IOP compared to control group (glaucomatous eyes; IC TGF-β twice weekly, day 28 (end of experiment), vs saline): remained significantly lower
- time of treatment after which elevated IOP started to reduce (glaucomatous eyes; IC TGF-β): 7 days
- effects on the laser-induced CNV (laser-induced CNV; dose of 0.6 mg/ml per day): neither anti-angiogenic nor pro-angiogenic effects
- difference vs saline control in lectin B4+ lesions (laser-induced CNV; mouse laser-CNV, day 10): no statistical difference
- difference vs vehicle (saline) in collagen IV new blood vessel area (laser-induced CNV; mouse laser-CNV, day 10): no statistical significant difference
- average isolectin B4 positive area (laser-induced CNV; [1]): 43972±2302 μm^2
- means of area of new blood vessels (collagen IV) (laser-induced CNV; [1]): 54681±2378 μm^2
